Measurements taken from PubChem BioAssay AID1918934 (Molecular Pharmacology Branch, DTP, NCI, 2023).
Where “and” joins values, the source holds several entries; their conditions need not be identical. Equal entries are not always repeated.

System: 292921-168-R-J2-PDC complex spheroid viability
Assay: Anticancer human tumor 292921-168-R-J2-PDC patient-derived pancreatic carcinoma cell line growth inhibition
Details: for viability, T/C: stronger effect = lower value; active means viability on the fitted dose curve at most 10% of control; inactive means the rest
Method in brief: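 Multicellular complex spheroids of tumor cells with human endothelial cells (HUVEC) and mesenchymal stem cells; the LSD1 inhibitor iadademstat was combined with standard-of-care or investigational agents. Top concentration at or near clinical Cmax, half-log dilutions; final DMSO ≤0.25%.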

[1] = curve of first compound, second compound 0.1 µM
[2] = curve of first compound, second compound 0.316 µM
[3] = curve of first compound, second compound 1 µM
[4] = curve of first compound, second compound 3.16 µM
[5] = curve of first compound, second compound 10 µM
[6] = second compound 0.1 µM, first compound 0.0316 µM
[7] = second compound 0.1 µM, first compound 0.1 µM
[8] = second compound 0.1 µM, first compound 0.316 µM
[9] = second compound 0.1 µM, first compound 1 µM
[10] = second compound 0.316 µM, first compound 0.0316 µM
[11] = second compound 0.316 µM, first compound 0.1 µM
[12] = second compound 0.316 µM, first compound 0.316 µM
[13] = second compound 0.316 µM, first compound 1 µM
[14] = second compound 1 µM, first compound 0.0316 µM
[15] = second compound 1 µM, first compound 0.1 µM
[16] = second compound 1 µM, first compound 0.316 µM
[17] = second compound 1 µM, first compound 1 µM
[18] = second compound 3.16 µM, first compound 0.0316 µM
[19] = second compound 3.16 µM, first compound 0.1 µM
[20] = second compound 3.16 µM, first compound 0.316 µM
[21] = second compound 3.16 µM, first compound 1 µM
[22] = second compound 10 µM, first compound 0.0316 µM
[23] = second compound 10 µM, first compound 0.1 µM
[24] = second compound 10 µM, first compound 0.316 µM
[25] = second compound 10 µM, first compound 1 µM
[26] = second compound 0.1 µM, first compound 0.00316 µM
[27] = second compound 0.1 µM, first compound 0.01 µM
[28] = second compound 0.316 µM, first compound 0.00316 µM
[29] = second compound 0.316 µM, first compound 0.01 µM
[30] = second compound 1 µM, first compound 0.00316 µM
[31] = second compound 1 µM, first compound 0.01 µM
[32] = second compound 3.16 µM, first compound 0.00316 µM
[33] = second compound 3.16 µM, first compound 0.01 µM
[34] = second compound 10 µM, first compound 0.00316 µM
[35] = second compound 10 µM, first compound 0.01 µM
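Further: seven day compound exposure before luminescent viability read.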
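Wherever viability, T/C is given: 100% = DMSO vehicle control wells.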

CC1(C)CCC(CN2CCN(c3ccc(C(=O)NS(=O)(=O)c4ccc(NCC5CCOCC5)c([N+](=O)[O-])c4)c(Oc4cnc5[nH]ccc5c4)c3)CC2)=C(c2ccc(Cl)cc2)C1 + NC1CC1c1ccc(-c2cccc(O)c2)cc1
1860 nM: IC50 [1]
inactive: viability, T/C [6] 75.5% | viability, T/C [7] 92.6% | viability, T/C [8] 81.9% | viability, T/C [9] 82.8% | viability, T/C (second compound 0.1 µM, first compound 3.16 µM) 22.1% | viability, T/C [10] 72.5% | viability, T/C [11] 79.7% | viability, T/C [12] 74.5% | viability, T/C [13] 78.2% | viability, T/C (second compound 0.316 µM, first compound 3.16 µM) 22.5% | viability, T/C [14] 67.8% | viability, T/C [15] 68.3% | viability, T/C [16] 71.7% | viability, T/C [17] 78% | viability, T/C (second compound 1 µM, first compound 3.16 µM) 27.1% | viability, T/C [18] 62.4% | viability, T/C [19] 59% | viability, T/C [20] 58.3% | viability, T/C [21] 65.6% | viability, T/C (second compound 3.16 µM, first compound 3.16 µM) 21.6% | viability, T/C [22] 49.8% | viability, T/C [23] 58.4% | viability, T/C [24] 52.4% | viability, T/C [25] 49.9% | viability, T/C (second compound 10 µM, first compound 3.16 µM) 12.1%
1390 nM: IC50 [4]
active: viability, T/C (second compound 0.1 µM, first compound 10 µM) 0.22% | viability, T/C (second compound 0.316 µM, first compound 10 µM) 0.21% | viability, T/C (second compound 1 µM, first compound 10 µM) 0.27% | viability, T/C (second compound 3.16 µM, first compound 10 µM) 0.19% | viability, T/C (second compound 10 µM, first compound 10 µM) 0.19%
958 nM: IC50 [5]
1750 nM: IC50 [2] | IC50 [3]

COc1cc(C2c3cc4c(cc3C(OC3OC5COC(C)OC5C(O)C3O)C3COC(=O)C23)OCO4)cc(OC)c1O (configuration not stated) + NC1CCC(NC2CC2c2ccccc2)CC1
16.3 nM: IC50 [3]
inactive: viability, T/C (second compound 0.1 µM, first compound 0.00949 µM) 62.7% | viability, T/C (second compound 0.1 µM, first compound 0.03 µM) 48.7% | viability, T/C (second compound 0.1 µM, first compound 0.0949 µM) 27.9% | viability, T/C (second compound 0.1 µM, first compound 0.3 µM) 20.8% | viability, T/C (second compound 0.1 µM, first compound 0.949 µM) 11.2% | viability, T/C (second compound 0.316 µM, first compound 0.00949 µM) 67.6% | viability, T/C (second compound 0.316 µM, first compound 0.03 µM) 45.2% | viability, T/C (second compound 0.316 µM, first compound 0.0949 µM) 29.6% | viability, T/C (second compound 0.316 µM, first compound 0.3 µM) 21.5% | viability, T/C (second compound 0.316 µM, first compound 0.949 µM) 8.7% | viability, T/C (second compound 1 µM, first compound 0.00949 µM) 56% | viability, T/C (second compound 1 µM, first compound 0.03 µM) 42.9% | viability, T/C (second compound 1 µM, first compound 0.0949 µM) 30.5% | viability, T/C (second compound 1 µM, first compound 0.3 µM) 20% | viability, T/C (second compound 1 µM, first compound 0.949 µM) 8.76% | viability, T/C (second compound 3.16 µM, first compound 0.00949 µM) 56.1% | viability, T/C (second compound 3.16 µM, first compound 0.03 µM) 40.5% | viability, T/C (second compound 3.16 µM, first compound 0.0949 µM) 30.7% | viability, T/C (second compound 3.16 µM, first compound 0.3 µM) 19% | viability, T/C (second compound 3.16 µM, first compound 0.949 µM) 8.55% | viability, T/C (second compound 10 µM, first compound 0.00949 µM) 50.1% | viability, T/C (second compound 10 µM, first compound 0.03 µM) 38.8% | viability, T/C (second compound 10 µM, first compound 0.0949 µM) 27.3% | viability, T/C (second compound 10 µM, first compound 0.3 µM) 16.3%
23.8 nM: IC50 [1]
active: viability, T/C (second compound 0.1 µM, first compound 3 µM) 5.3% | viability, T/C (second compound 0.316 µM, first compound 3 µM) 6.82% | viability, T/C (second compound 1 µM, first compound 3 µM) 5.56% | viability, T/C (second compound 3.16 µM, first compound 3 µM) 7.39% | viability, T/C (second compound 10 µM, first compound 0.949 µM) 9.55% | viability, T/C (second compound 10 µM, first compound 3 µM) 6.68%
24.2 nM: IC50 [2]
15.3 nM: IC50 [4]
9.52 nM: IC50 [5]

CC1COCCN1c1cc(-c2ccnn2C)c2ccnc(-c3ccn[nH]3)c2n1 (configuration not stated) + NC1CC1c1ccc(-c2cccc(O)c2)cc1
< 3.16 nM: IC50 [1] | IC50 [2] | IC50 [3] | IC50 [4] | IC50 [5]
inactive: viability, T/C [26] 16.9% | viability, T/C [27] 15.3% | viability, T/C [6] 14.2% | viability, T/C [7] 15.7% | viability, T/C [8] 16.2% | viability, T/C [9] 17.7% | viability, T/C [28] 17.2% | viability, T/C [29] 14.9% | viability, T/C [10] 13.2% | viability, T/C [11] 14.3% | viability, T/C [12] 15.9% | viability, T/C [13] 16.7% | viability, T/C [30] 17.7% | viability, T/C [31] 15.4% | viability, T/C [14] 14.1% | viability, T/C [15] 12.7% | viability, T/C [16] 16.8% | viability, T/C [17] 20.3% | viability, T/C [32] 15.2% | viability, T/C [33] 15.4% | viability, T/C [18] 14.7% | viability, T/C [19] 13.7% | viability, T/C [20] 14.9% | viability, T/C [21] 17% | viability, T/C [34] 15.1% | viability, T/C [35] 14.6% | viability, T/C [22] 14.6% | viability, T/C [23] 13.5% | viability, T/C [24] 15.1% | viability, T/C [25] 17.1%

O=C(C=Cn1cnc(-c2cc(C(F)(F)F)cc(C(F)(F)F)c2)n1)NNc1cnccn1 + NC1CC1c1ccc(-c2cccc(O)c2)cc1
inactive: viability, T/C [26] 48.3% | viability, T/C [27] 49.7% | viability, T/C [6] 26.2% | viability, T/C [28] 50% | viability, T/C [29] 45% | viability, T/C [10] 22.3% | viability, T/C [30] 47.8% | viability, T/C [31] 42.7% | viability, T/C [14] 23% | viability, T/C [15] 11.8% | viability, T/C [32] 51.8% | viability, T/C [33] 46% | viability, T/C [18] 24% | viability, T/C [19] 14.4% | viability, T/C [34] 50.7% | viability, T/C [35] 46.3% | viability, T/C [22] 33.5% | viability, T/C [23] 17.6% | viability, T/C [24] 9.43%
< 3.16 nM: IC50 [3]
3.76 nM: IC50 [5]
3.26 nM: IC50 [1]
3.41 nM: IC50 [2]
active: viability, T/C [7] 12.7% | viability, T/C [8] 7.08% | viability, T/C [9] 6.49% | viability, T/C [11] 11.1% | viability, T/C [12] 7.37% | viability, T/C [13] 6.26% | viability, T/C [16] 6.36% | viability, T/C [17] 6.66% | viability, T/C [20] 7.81% | viability, T/C [21] 7.38% | viability, T/C [25] 8.53%
4.57 nM: IC50 [4]

CC1COCCN1c1cc(-c2ccnn2C)c2ccnc(-c3ccn[nH]3)c2n1 (configuration not stated) + NC1CCC(NC2CC2c2ccccc2)CC1
inactive: viability, T/C [26] 14.1% | viability, T/C [27] 12.3% | viability, T/C [6] 13% | viability, T/C [7] 16.4% | viability, T/C [8] 18.4% | viability, T/C [9] 19.3% | viability, T/C [28] 15.7% | viability, T/C [29] 14.8% | viability, T/C [10] 12% | viability, T/C [11] 15.7% | viability, T/C [12] 16.9% | viability, T/C [13] 18.3% | viability, T/C [30] 14.4% | viability, T/C [31] 15.1% | viability, T/C [14] 13.5% | viability, T/C [15] 14.2% | viability, T/C [16] 14.8% | viability, T/C [17] 17.2% | viability, T/C [32] 15.7% | viability, T/C [33] 15.5% | viability, T/C [18] 12.2% | viability, T/C [19] 13.5% | viability, T/C [20] 15.3% | viability, T/C [21] 16% | viability, T/C [34] 13.7% | viability, T/C [35] 14% | viability, T/C [22] 12.3% | viability, T/C [23] 12.5% | viability, T/C [24] 14.2% | viability, T/C [25] 17.3%
< 3.16 nM: IC50 [1] | IC50 [2] | IC50 [3] | IC50 [4] | IC50 [5]

CC[C@@]1(O)C(=O)OCc2c1cc1n(c2=O)Cc2cc3c(CN(C)C)c(O)ccc3nc2-1
inactive: viability, T/C (compound 0.000316 µM) 96.8% and 95.3% | viability, T/C (compound 0.001 µM) 79.3% and 94.1% | viability, T/C (compound 0.00316 µM) 54.4% and 57.1% | viability, T/C (compound 0.01 µM) 21.4% and 21.1%
active: viability, T/C (compound 0.0316 µM) 9.12% and 10.3% | viability, T/C (compound 0.1 µM) 4.35% and 3.55%
3.45 nM and 4.11 nM: IC50 (curve of compound)
